In ChEMBL document CHEMBL6074647, “Design, synthesis and antitumor activity of novel 4-oxobutanamide derivatives” (Bioorg Med Chem Lett, 2024):
pIC50: −log10 of the molar value.

How the values were obtained:
HeLa [1] = test: Antiproliferative activity against human HeLa cells assessed as reduction in cell viability by MTT assay; format: functional, cell-based
MDA-MB-231 = test: Antiproliferative activity against human MDA-MB-231 cells assessed as reduction in cell viability by MTT assay; format: functional, cell-based
A498 [2] = test: Antiproliferative activity against human A498 cells assessed as reduction in cell viability by MTT assay; format: functional, cell-based
A2780 = test: Antitumor activity against human A2780 cells; format: functional, cell-based
PANC-1 = test: Antitumor activity against human PANC-1 cells; format: functional, cell-based
SMMC-7721 = test: Antitumor activity against human […] cells; format: functional, cell-based
HeLa [3] = test: Antiproliferative activity against human HeLa cells assessed as inhibition of cell growth; format: functional, cell-based
NCI-H460 = test: Antiproliferative activity against human NCI-H460 cells assessed as inhibition of cell growth; format: functional, cell-based
A498 [4] = test: Anti-angiogenesis activity against human A498 cells xenografted in chicken embryo chorioallantoic membrane assessed as CAM blood vessel growth at 1 uM; format: functional
A498 [5] = test: Inhibition of colony formation in human A498 cells assessed as proliferative capacity at 4 uM; format: functional; design: scale not given: the % may be the effect or the level left
A498 [6] = test: Anti-angiogenesis activity against human A498 cells xenografted in chicken embryo chorioallantoic membrane assessed as CAM blood vessel growth at 2 uM; format: functional
A498 [7] = test: Inhibition of colony formation in human A498 cells assessed as proliferative capacity at 1 uM; format: functional; design: scale not given: the % may be the effect or the level left
A498 [8] = test: Inhibition of cell adhesion in human A498 cells at 4 uM; format: functional, cell-based
A498 [9] = test: Anti-angiogenesis activity against human A498 cells xenografted in chicken embryo chorioallantoic membrane assessed as CAM blood vessel growth at 4 uM; format: functional
A498 [10] = test: Inhibition of cell invasion in human A498 cells assessed as decrease in cell density invading the bottom surface of the membrane by Transwell assay; format: functional, cell-based; conditions: dose 1-4 µM
A498 [11] = test: Inhibition of cell invasion in human A498 cells assessed as decrease in cell density invading the bottom surface of the membrane at 2 uM by Transwell assay; format: functional, cell-based
A498 [12] = test: Antitumor activity against human A498 cells xenografted in chicken embryo chorioallantoic membrane assessed as decrease in tumor weight; format: functional, cell-based; conditions: dose 1-4 µM
A498 [13] = test: Inhibition of colony formation in human A498 cells assessed as proliferative capacity at 2 uM; format: functional; design: scale not given: the % may be the effect or the level left
A498 [14] = test: Inhibition of cell adhesion in human A498 cells; format: functional, cell-based; conditions: dose 1-4 µM
A498 [15] = test: Antitumor activity against human A498 cells xenografted in chicken embryo chorioallantoic membrane assessed as decrease in tumor weight at 4 uM; format: functional, cell-based

Row | pIC50 (HeLa [1]) | pIC50 (MDA-MB-231) | SMILES | pIC50 (A498 [2]) | further results
1 | 4.67 | 4.50 | CC(=O)O[C@H]1C(=O)[C@@]2(C)[C@H]([C@H](OC(=O)c3ccccc3)[C@]3(O)C[C@H](OC(=O)[C@H](O)[C@@H](NC(=O)c4ccccc4)c4ccccc4)C(C)=C1C3(C)C)[C@]1(OC(C)=O)CO[C@@H]1C[C@@H]2O [PACLITAXEL] |  | 
2 | 4.68 | 4.23 | COc1ccc(CN(C(=O)CCC(=O)Nc2ccc(Br)cc2)c2cc(OC)c(OC)c(OC)c2)cc1 | 5.27 | 
3 |  |  | COc1ccc(CCc2cc(OC)c(OC)c(OC)c2)cc1O |  | pIC50 (A2780): 6.38; pIC50 (PANC-1): 6.35; pIC50 (SMMC-7721): 6.54
4 | 4.24 | < 4.00 | COc1ccc(CN(C(=O)CCC(=O)Nc2cc(OC)c(OC)c(OC)c2)c2cc(OC)c(OC)c(OC)c2)cc1 | < 4.00 | 
5 | 4.69 | 4.32 | COc1ccc(CN(C(=O)CCC(=O)Nc2cccc(Cl)c2)c2cc(OC)c(OC)c(OC)c2)cc1 | 4.97 | 
6 | < 4.00 | 5.09 | COc1ccc(CN(C(=O)CCC(=O)Nc2ccc(C)cc2)c2cc(OC)c(OC)c(OC)c2)cc1 | 5.27 | 
7 | 4.92 | 4.67 | COc1ccc(CN(C(=O)CCC(=O)Nc2cccc(OC)c2)c2cc(OC)c(OC)c(OC)c2)cc1 | 5.08 | 
8 | 4.38 | 4.14 | COc1ccc(CN(C(=O)CCC(=O)Nc2ccccc2Cl)c2cc(OC)c(OC)c(OC)c2)cc1 | 5.25 | 
9 | 4.32 | 4.13 | COc1ccc(CN(C(=O)CCC(=O)Nc2ccccc2OC)c2cc(OC)c(OC)c(OC)c2)cc1 | 5.24 | 
10 | 4.72 | 4.78 | COc1ccc(CN(C(=O)CCC(=O)Nc2cccc(C)c2)c2cc(OC)c(OC)c(OC)c2)cc1 | 5.05 | 
11 | 4.80 | 4.79 | COc1ccc(CN(C(=O)CCC(=O)Nc2ccccc2)c2cc(OC)c(OC)c(OC)c2)cc1 | 5.68 | 
12 | 4.86 | 4.65 | COc1ccc(CN(C(=O)CCC(=O)Nc2ccc(Cl)cc2)c2cc(OC)c(OC)c(OC)c2)cc1 | 4.94 | 
13 |  |  | COc1ccc(N(C)c2nc(C)nc3ccccc23)cc1NC(=O)CCC(=O)NO |  | pIC50 (HeLa [3]): 5.62; pIC50 (NCI-H460): 5.98
14 | 5.33 | < 4.00 | COc1ccc(CN(C(=O)CCC(=O)Nc2ccc(C(F)(F)F)cc2)c2cc(OC)c(OC)c(OC)c2)cc1 | < 4.00 | 
15 | 5.62 | 4.62 | COc1ccc(CN(C(=O)CCC(=O)Nc2ccc(F)cc2)c2cc(OC)c(OC)c(OC)c2)cc1 | 5.39 | 
16 | 5.08 | 4.50 | COc1ccc(CN(C(=O)CCC(=O)Nc2ccc(OC)cc2)c2cc(OC)c(OC)c(OC)c2)cc1 | 5.71 | Activity (A498 [4]): 82.4%; Activity (A498 [5]): 11.16%; Activity (A498 [6]): 66.22%; Activity (A498 [7]): 66.94%; inhibition (A498 [8]): Active; Better Activity Compared To Positive Control, Paclitaxel And Colchicine; Activity (A498 [9]): 42.04%; inhibition (A498 [10]): Dose-dependent-effect; inhibition (A498 [11]): Active; Better Activity Compared To 4 Um Positive Control, Paclitaxel And Colchicine; Activity (A498 [12]): Dose-dependent-effect; Activity (A498 [13]): 26.03%; inhibition (A498 [14]): Dose-dependent-effect; Activity (A498 [15]): Active; Better Activity Compared To Positive Control, Paclitaxel And Colchicine
17 |  | 4.25 | COc1ccc(CN(C(=O)C(=O)Nc2ccc(C)cc2)c2cc(OC)c(OC)c(OC)c2)cc1 |  | 
18 | 4.40 | 4.25 | COc1ccc(CN(C(=O)CCC(=O)Nc2cccc(F)c2)c2cc(OC)c(OC)c(OC)c2)cc1 | 4.93 | 
19 | 4.93 | 4.63 | COc1ccc(CN(C(=O)CCC(=O)Nc2ccc(O)cc2)c2cc(OC)c(OC)c(OC)c2)cc1 | 5.49 | 
20 |  | 4.39 | COc1ccc(CN(C(=O)C(=O)Nc2ccc(Cl)cc2)c2cc(OC)c(OC)c(OC)c2)cc1 |  | 

Row | SMILES | pIC50 (HeLa [1]) | pIC50 (MDA-MB-231) | pIC50 (A498 [2]) | further results
21 | COc1cc2c(c(OC)c1OC)-c1ccc(OC)c(=O)cc1[C@@H](NC(C)=O)CC2 [COLCHICINE] | 4.49 | < 4.00 | 5.14 | 
